From BindingDB's records for doi:10.1111/cbdd.12796 (Fudan University, 2016)
Where “and” joins values, the source holds several entries; their conditions need not be identical. Identical values can stand only once.

Assays:
D(1A) dopamine receptor [1] = target: T1, D(1A) dopamine receptor (Homo sapiens, UniProt P21728); assay: Competitive Binding Assays
D(2) dopamine receptor = D(2) dopamine receptor (Homo sapiens, UniProt P14416); assay: Competitive Binding Assays
D(3) dopamine receptor = D(3) dopamine receptor (Homo sapiens, UniProt P35462); assay: Competitive Binding Assays
Sequence of D(3) dopamine receptor (P35462 as listed by the source): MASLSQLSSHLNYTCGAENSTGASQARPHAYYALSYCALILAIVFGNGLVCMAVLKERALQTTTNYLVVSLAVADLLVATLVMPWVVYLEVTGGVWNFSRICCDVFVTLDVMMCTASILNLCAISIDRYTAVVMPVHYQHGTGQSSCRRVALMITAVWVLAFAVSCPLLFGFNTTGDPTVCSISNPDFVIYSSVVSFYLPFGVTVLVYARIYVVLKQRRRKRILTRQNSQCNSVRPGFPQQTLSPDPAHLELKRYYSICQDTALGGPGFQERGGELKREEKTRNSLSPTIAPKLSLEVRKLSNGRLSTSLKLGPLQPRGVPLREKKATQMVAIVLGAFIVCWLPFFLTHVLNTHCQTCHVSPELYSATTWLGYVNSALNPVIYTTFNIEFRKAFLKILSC

D(1A) dopamine receptor [2] = target: T1, D(1A) dopamine receptor; assay: D1R Functional Assay; details: pH 7.5

Sequence of D(2) dopamine receptor (P14416 whole entry): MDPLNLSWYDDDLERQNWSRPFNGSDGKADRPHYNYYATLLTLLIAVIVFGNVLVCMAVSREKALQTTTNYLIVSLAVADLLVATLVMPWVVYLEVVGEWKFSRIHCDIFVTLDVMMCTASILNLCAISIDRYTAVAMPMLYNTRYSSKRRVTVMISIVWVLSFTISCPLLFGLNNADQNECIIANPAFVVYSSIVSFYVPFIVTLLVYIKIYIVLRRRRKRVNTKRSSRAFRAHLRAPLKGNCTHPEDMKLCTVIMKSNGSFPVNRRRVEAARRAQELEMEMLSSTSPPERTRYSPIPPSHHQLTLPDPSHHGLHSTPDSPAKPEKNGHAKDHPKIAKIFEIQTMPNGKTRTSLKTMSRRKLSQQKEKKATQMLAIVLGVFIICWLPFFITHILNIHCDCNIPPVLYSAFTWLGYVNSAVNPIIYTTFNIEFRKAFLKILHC
T1 sequence (P21728 whole entry): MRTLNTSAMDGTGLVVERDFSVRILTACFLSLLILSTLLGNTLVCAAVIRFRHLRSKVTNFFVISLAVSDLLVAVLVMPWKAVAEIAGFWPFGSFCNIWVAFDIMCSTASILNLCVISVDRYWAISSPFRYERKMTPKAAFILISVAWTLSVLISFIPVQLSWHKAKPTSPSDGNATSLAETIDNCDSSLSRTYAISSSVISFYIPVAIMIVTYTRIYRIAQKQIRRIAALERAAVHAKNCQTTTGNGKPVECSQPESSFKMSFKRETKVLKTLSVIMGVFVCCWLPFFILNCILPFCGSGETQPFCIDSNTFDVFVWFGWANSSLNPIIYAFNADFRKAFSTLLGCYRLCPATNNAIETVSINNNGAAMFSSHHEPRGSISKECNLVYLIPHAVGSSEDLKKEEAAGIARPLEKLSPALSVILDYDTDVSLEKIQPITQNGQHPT

Row | Ki (D(1A) dopamine receptor [1]) [µM] | Ki (D(2) dopamine receptor) | Ki (D(3) dopamine receptor) [µM] | IC50 (D(1A) dopamine receptor [2]) [µM] | Structure (SMILES)
1 | 0.0603 | 0.00426 µM | 0.0273 | – | COc1ccc2c(c1OC)CCN1CCc3cc4c(cc3C1C2)OCO4 (stereo not drawn) [Hexahydrobenzo[4,5]azepino[2,1-a]isoquinoline, 16]
2 | 0.0339 | 0.0265 µM | 0.0133 | – | COc1cc2c(cc1OC)CC1c3cc(OC)c(OC)cc3CCN1CC2 (stereo not drawn) [2,3,11,12-tetramethoxy-5,6,8,9,14,14a-hexahydrobenzo[4,5]azepino[2,1-a]isoquinoline (15a)]
3 | 0.22 | 0.0392 µM | 0.0612 | – | COc1ccc2c(c1OC)CCN1CCc3cc(O)c(O)cc3C1C2 (stereo not drawn) [Hexahydrobenzo[4,5]azepino[2,1-a]isoquinoline, 17]
4 | – | 0.0366 µM and 0.0344 µM and 0.0583 µM | – | 0.14 | COc1cc2c(cc1O)C1Cc3ccc(OC)c(O)c3CCN1CC2 (stereo not drawn) [3,11-dimethoxy-5,6,8,9,14,14a-hexahydrobenzo[4,5]azepino[2,1-a]isoquinoline-2,10-diol ((+)-15e)]
5 | 0.474 | 0.052 µM | 0.0737 | – | COc1cc2c(cc1OC(C)=O)C1Cc3ccc(OC)c(OC)c3CCN1CC2 (stereo not drawn) [3,10,11-trimethoxy-5,6,8,9,14,14a-hexahydrobenzo[4,5]azepino[2,1-a]isoquinolin-2-ylacetate (19)]
6 | 0.0691 | 0.00696 µM | 0.0392 | – | COc1cc2c(cc1O)C1Cc3cc(OC)c(OC)cc3CCN1CC2 (stereo not drawn) [3,11,12-trimethoxy-5,6,8,9,14,14a-hexahydrobenzo[4,5]azepino[2,1-a]isoquinolin-2-ol (15b)]
7 | 0.0337 | 0.0722 µM | 0.471 | 115 | Oc1cc2c(cc1O)C1Cc3ccc(O)c(O)c3CCN1CC2 (stereo not drawn) [5,6,8,9,14,14a-hexahydrobenzo[4,5]azepino[2,1-a]isoquinoline-2,3,10,11-tetraol (18)]
8 | 0.0303 | 0.084 µM | 0.284 | 33.5 | COc1cc2c(cc1O)C1Cc3ccc(OC)c(OC)c3CCN1CC2 (stereo not drawn) [3,10,11-trimethoxy-5,6,8,9,14,14a-hexahydrobenzo[4,5]azepino[2,1-a]isoquinolin-2-ol (15d)]
9 | 0.0573 | 0.0298 µM | 0.022 | – | COc1cc2c(cc1OC)C1Cc3ccc(OC)c(OC)c3CCN1CC2 (stereo not drawn) [2,3,10,11-tetramethoxy-5,6,8,9,14,14a-hexahydrobenzo[4,5]azepino[2,1-a]isoquinoline (15c)]
